Where a name gives a salt, the structure may show the parent alone.
Assays:
[1] = system: gravid White New Zealand female rabbits; assay: Teratogenicity in gravid White New Zealand rabbits; format: in vivo, rabbit; settings: day 5 to day 18 of gestation; for Affected foetuses, %: normal limit 1.5%
Description: The protocol used comprised administering to gravid White New Zealand female rabbits (weighing each about 2900-3000 grams before gestation) a daily dose of 0 (batch of control animals), 5,10 or 50 mg/kg of each product to be tested by gastrogavage from day 5 to day 18 of gestation, then carrying out a cesarean operation on day 29 of gestation in order to enumerate:
(i) the total number of foestuses, and
(ii) the total number of foestuses presenting at least one malformation.
To appreciate the results of such a protocol it must be noted that natural malformations may occur. Statistically, the percentage of foetuses presenting at least one malformation in any control batch of gravid White New Zealand female rabbits is lower than or equal to 1.5% with respect to the total number of foetuses.
To be precise in this protocol a malformation comprises at least one of the following cases: articular limb blocade, anorous foetus, deviated tail, shorter tail, skull deformation, exemcephalia.

[2] = system: CNS; assay: Neuropsychopharmacological profile as a whole; format: in vivo, mice and rats; settings: conclusion of the tests
Description: In the neuropsychopharmacological study which follows, a solution of CRL 41 153 in distilled water (pH 1.5) was administered intraperitoneally in a volume of 20 ml/kg to male mice and 5 ml/kg to male rats.

[3] = system: mice; assay: Interaction with barbital; format: in vivo, mouse; settings: i.p., barbital 220 mg/kg
Description: Half an hour after the administration of CRL 41 153, groups of 10 mice receive an intraperitoneal injection of barbital (220 mg/kg).

[4] = pH of solutions in distilled water; format: physicochemical
Description: The neuropsychopharmacological study was undertaken according to the procedures described above for CRL 41 153, CRL 41 213 being adminstered intraperitoneally, in solution in distilled water, in a volume of 20 ml/kg to male mice and a volume of 5 ml/kg to male rats, and the pH of the injected solution varying with the concentration of CRL 41 213 according to the data given in Table II below.

Compound	Affected foetuses, number ([1]; 10 mg/kg daily)	Total foetuses (live) ([1]; 10 mg/kg daily)	Affected foetuses, % ([1]; 10 mg/kg daily)	other results
CC(C)NCCCC(=O)c1ccc(N)cc1 [A 1, reference compound]	4	87	4.59%	–
CC(C)(C)NCCCC(=O)c1ccc(N)cc1 [A 2, reference compound]	4	85	4.70%	–
CC(C)NCCCC(=O)c1cc(Cl)c(N)c(Cl)c1 [A 3, reference compound]	5	82	6.09%	–
Nc1ccc(C(=O)CCCN2CCCCC2)cc1 [A 5, reference compound]	4	87	4.59%	Affected foetuses, number ([1]; 5 mg/kg daily): 3; Total foetuses (live) ([1]; 5 mg/kg daily): 81; Affected foetuses, % ([1]; 5 mg/kg daily): 3.70%
Nc1ccc(C(=O)CCCN2CCCC2)cc1 [A 6, reference compound]	5	86	5.81%	Affected foetuses, number ([1]; 5 mg/kg daily): 0; Total foetuses (live) ([1]; 5 mg/kg daily): 89; Affected foetuses, % ([1]; 5 mg/kg daily): 0%
CCNCCC(=O)c1ccc(N)cc1 [A 7, reference compound]	4	79	5.06%	Affected foetuses, number ([1]; 5 mg/kg daily): 1; Total foetuses (live) ([1]; 5 mg/kg daily): 80; Affected foetuses, % ([1]; 5 mg/kg daily): 1.25%
CN(C)CCC(=O)c1ccc(N)cc1 [A 8, reference compound]	5	81	6.17%	–
Nc1ccc(C(=O)CCN2CCOCC2)cc1 [A 9, reference compound]	0	94	0%	Affected foetuses, number ([1]; 5 mg/kg daily): 1; Total foetuses (live) ([1]; 5 mg/kg daily): 86; Affected foetuses, % ([1]; 5 mg/kg daily): 1.16%; Affected foetuses, number ([1]; 50 mg/kg daily): 6; Total foetuses (live) ([1]; 50 mg/kg daily): 82; Affected foetuses, % ([1]; 50 mg/kg daily): 7.31%
Nc1ccc(C(=O)CCN2CCCCC2)cc1 [A 10, reference compound]	4	78	5.12%	–
CN1CCN(CCC(=O)c2ccc(N)cc2)CC1 [A 11, reference compound]	6	80	7.50%	–
Nc1ccc(C(=O)CCNC2CC2)cc1 [A 12, reference compound]	–	–	–	Affected foetuses, number ([1]; 5 mg/kg daily): 2; Total foetuses (live) ([1]; 5 mg/kg daily): 75; Affected foetuses, % ([1]; 5 mg/kg daily): 2.66%
Nc1ccc(C(=O)CCN2CCSCC2)cc1 [A 13, reference compound]	12	43	27.90%	–
CC(C)NCC(=O)c1ccc(N)cc1 [A 14, reference compound]	3	76	3.94%	–
CC(C)NCC(=O)c1cccc(N)c1 [A 15, reference compound]	14	52	26.92%	–
Nc1ccc(C(=O)CN2CCOCC2)cc1 [A 16, 1-(4-aminophenyl)-2-morpholinylethanone, reference compound]	13	50	26.0%	Affected foetuses, number ([1]; 5 mg/kg daily): 3; Total foetuses (live) ([1]; 5 mg/kg daily): 81; Affected foetuses, % ([1]; 5 mg/kg daily): 3.70%
Nc1cccc(C(=O)CN2CCOCC2)c1 [A 17, reference compound]	11	46	23.91%	Affected foetuses, number ([1]; 5 mg/kg daily): 2; Total foetuses (live) ([1]; 5 mg/kg daily): 77; Affected foetuses, % ([1]; 5 mg/kg daily): 2.59%
Nc1ccc(C(=O)CN2CCCCC2)cc1 [A 18, reference compound]	10	51	19.60%	Affected foetuses, number ([1]; 5 mg/kg daily): 4; Total foetuses (live) ([1]; 5 mg/kg daily): 80; Affected foetuses, % ([1]; 5 mg/kg daily): 5.0%
Nc1cccc(C(=O)CN2CCCCC2)c1 [A 19, reference compound]	3	62	4.83%	–
Nc1ccc(C(=O)CN2CCCC2)cc1 [A 20, reference compound]	5	74	8.10%	–
Nc1cccc(C(=O)CN2CCCC2)c1 [A 21, reference compound]	4	78	5.12%	–
CCC1CCCCN1C(C)C(=O)c1ccc(N)c(Br)c1 (stereo not drawn) [A 22, 1-(4-amino-3-bromophenyl)2-(2-ethylpiperidino)propanone, reference compound]	13	46	28.26%	–
CC(C(=O)c1ccc(N)cc1)N1CCN(C)CC1 (stereo not drawn) [CRL 41 243]	–	–	–	Antidepressant effects (overall) [2]: modest antidepressant effects; Sedative effects (overall) [2]: moderate sedative effects; Affected foetuses, number ([1]; 50 mg/kg daily): 0; Total foetuses (live) ([1]; 50 mg/kg daily): 87; Affected foetuses, % ([1]; 50 mg/kg daily): 0%; Duration of the sleep induced by barbital [3]: at strong doses reduces the duration of the sleep induced by barbital; pH ([4]; 0.1 g/liter in distilled water): 5.0; pH ([4]; 0.2 g/liter in distilled water): 4.5; pH ([4]; 0.4 g/liter in distilled water): 4.0; pH ([4]; 0.8 g/liter in distilled water): 3.5; pH ([4]; 3.2 g/liter in distilled water): 2.5; pH ([4]; 6.4 g/liter in distilled water): 2.0; pH ([4]; 25 g/liter in distilled water): 1.5; pH ([4]; 50 g/liter in distilled water): 1.0; pH ([4]; ≤0.05 g/liter in distilled water): 5.5
CC(C)NC(C)C(=O)c1cccc(N)c1 (stereo not drawn) [CRL 41 255]	1	89	1.12%	–
CC(C(=O)c1cccc(N)c1)N(C)C (stereo not drawn) [CRL 41 260]	1	87	1.14%	–
CC(C(=O)c1cccc(N)c1)N1CCCCC1 (stereo not drawn) [CRL 41 263, 1-(3-aminophenyl)-2-piperidinopropanone dihydrochloride]	0	92	0%	–
CC(C(=O)c1cccc(N)c1)N1CCOCC1 (stereo not drawn) [CRL 41 268]	1	91	1.11%	–
CCCNC(C)C(=O)c1cccc(N)c1 (stereo not drawn) [CRL 41 278]	1	92	1.08%	–

From US4980377A, “1-(aminophenyl)-2-aminopropanone derivatives” (Laboratoire L. Lafon, priority 1984, dated 1990)
